Like-named read-outs stand apart in the source and are kept apart here.
Tests used:
[1] = system: VEGF dependent retinal vascular development; assay: In vivo assay of retinal vascular development in neonatal rats; set-up: species or system rat
Experimental: The development of the retinal vascular in rats occurs from postnatal day 1 to postnatal day 14 (P1-P14). […] To assess the ability of specific compounds to inhibit the activity of VEGF in vivo, compounds were formulated in an appropriate vehicle, usually 50% polyethylene glycol, average molecular weight 400 daltons, and 50% solution of 300 mM sucrose in deionized water. […] Six days after the intravitreal injection, the animals were sacrificed and the retinas dissected free from the remaining ocular tissue. […] The individual retinas are then flat-mount onto glass slides and examined to determine the extent of vascularization. […] The amount of vessel regression was used to assess the relative potency of the compounds after in vivo administration.
For more quantitative analysis of regression, images of ADPase-stained, flat-mounted retinas were captured with a digital camera attached to a dissecting microscope. Retinal images were then imported into an image analysis software (Image Pro Plus 4.0, Media Cybernetics, Silver Spring, MD). The software was employed to determine the percentage of the area of the retina that contained stained vessels. This value for the experimental eye was compared to that measured for the vehicle injected, contralateral eye from the same animal. The reduction in the vascular area seen in the eye that received compound as compared to the vehicle-injected eye was then expressed as the "percent regression" for that sample.

[2] = for AUCleast: mouse, in vivo, pH 2.3
in vitro = in vitro ADME, human; details: 2 h
Method in brief: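 HLM diluted to 5 mg/mL in 100 mM KPO4, preincubated 10 min at 37 °C with NADPH-regenerating system. Compound (5 µM final) incubated at 37 °C in triplicate, sampled at 0 and 2 h into ice-cold acetonitrile, then LC-MS analysis.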

LCK tyrosine kinase = LCK tyrosine kinase (Homo sapiens, UniProt P06239, C224D/P223M); assay: LCK spectrophotometric assay; assay type: biochemical; details: Table 1; compound concentration 1 µM; read-out: Lck-P* (% inhibition)
Experimental: The spectrophotometric assay was carried out as described above for VEGF-R2, except for the following changes in concentration: LCK = 60 nM, MgCl2 = 0 mM, poly(E4Y1) = 20 mM.

[3] = system: human umbilical vein endothelial cells (HUVEC); assay: HUVEC proliferation assay (VEGF-stimulated, MTT); assay type: cell-based; details: Homo sapiens, HUVEC, Table 1
human FGF-R1 = human FGF-R1 (Homo sapiens, UniProt P11362, C488A/C584S/L457V); assay: FGF-R spectrophotometric assay; assay type: biochemical; details: Table 1; compound concentration 1 µM; read-out: FGF-P* (% inhibition)
Experimental: The spectrophotometric assay was carried out as described above for VEGF-R2, except for the following changes in concentration: FGF-R = 50 nM, ATP = 2 mM, and poly(E4Y1) =15 mM.

in vivo = details: mouse, plasma, pH 2.3
[4] = target: unphosphorylated VEGF-R2Δ50 (Homo sapiens, UniProt P35968, DEL940-989/E990V); assay: biochemical; details: read-out: FLVK ** (% inhibition)
[5] = Model P8, intravitreal, 5 mg/ml, vehicle PEG/water 50:50
[6] = human liver microsomes, 5 µM test compound, 37 °C
[7] = + albumin, read-out: HUVEC + albumin IC50
[8] = PO, 50 mg/kg, vehicle PEG400:H2O pH 2.3 30:70
[9] = PO, 50 mg/kg, vehicle PEG400:H2O pH 2.3 60:40
[10] = IP, 25 mg/kg, vehicle PEG400:H2O pH 2.3 30:70

human FGF-R1, sequence (P11362 456-766 L457V/C488A/C584S): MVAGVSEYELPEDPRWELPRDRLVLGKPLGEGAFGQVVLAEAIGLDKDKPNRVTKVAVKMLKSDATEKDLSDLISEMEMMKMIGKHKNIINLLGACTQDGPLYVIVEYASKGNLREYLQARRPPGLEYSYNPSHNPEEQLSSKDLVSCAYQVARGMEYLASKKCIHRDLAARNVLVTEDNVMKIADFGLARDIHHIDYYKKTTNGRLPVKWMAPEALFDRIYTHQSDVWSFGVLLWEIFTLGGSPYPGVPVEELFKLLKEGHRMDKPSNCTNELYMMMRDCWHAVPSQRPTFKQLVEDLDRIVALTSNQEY
unphosphorylated VEGF-R2Δ50, sequence (P35968 with tags, fused parts or gaps DEL940-989/E990V limits assumed): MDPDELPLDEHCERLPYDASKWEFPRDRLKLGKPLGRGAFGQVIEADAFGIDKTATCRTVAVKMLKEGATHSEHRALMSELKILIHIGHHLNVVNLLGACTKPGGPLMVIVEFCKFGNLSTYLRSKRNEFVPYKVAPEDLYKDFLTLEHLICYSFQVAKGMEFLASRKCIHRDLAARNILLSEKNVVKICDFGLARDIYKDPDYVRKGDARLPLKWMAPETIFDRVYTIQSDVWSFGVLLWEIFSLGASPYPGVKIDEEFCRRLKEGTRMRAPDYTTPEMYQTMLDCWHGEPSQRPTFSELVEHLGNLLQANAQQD
LCK tyrosine kinase, sequence (P06239 223-509 P223M/C224D): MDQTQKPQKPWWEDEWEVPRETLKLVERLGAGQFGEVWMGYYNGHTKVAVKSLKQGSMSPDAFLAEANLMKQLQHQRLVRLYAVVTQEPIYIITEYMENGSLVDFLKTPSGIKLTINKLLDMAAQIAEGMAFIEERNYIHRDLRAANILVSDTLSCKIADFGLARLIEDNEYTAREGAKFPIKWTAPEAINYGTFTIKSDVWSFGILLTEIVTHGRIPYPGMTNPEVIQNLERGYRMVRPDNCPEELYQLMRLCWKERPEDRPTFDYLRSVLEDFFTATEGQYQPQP

Compound: CCCn1nc(C)cc1C(=O)Nc1cccc(C(=O)c2ccc3c(/C=C/c4ccccn4)n[nH]c3c2)c1 [41 (r)]
- Initial Evaluation [1, 5]: +/++ var
- AUCleast ([2]; ip, 25 mg/kg): > 23752 ng·h/mL
- AUCleast ([2]; po, 50 mg/kg): > 17789 ng·h/mL

Compound: CS(=O)(=O)c1ccc(C(=O)Nc2cccc(Oc3ccc4c(/C=C/c5ccccn5)n[nH]c4c3)c2)s1 [Reference Example 31(c), 6-[3-((5-methylsulfonylthien-2-yl)carboxamido)phenoxy]-3-E-[2-(pyridin-2-yl)ethenyl]-1H-indazole]
- % remain (HLM, 2 h) (in vitro; [6]): 87%
- inhibition at 1 µM (LCK tyrosine kinase): 81%
- IC50 [3, 7]: 11.4 nM
- Initial Evaluation [1, 5]: +/++ var
- inhibition at 1 µM (human FGF-R1): 98%

Compound: O=C(c1cccc(NC(=O)C2CC2)c1)c1ccc2c(/C=C/c3ccccn3)n[nH]c2c1 [Reference Example 41(k), 6-[3-(cyclopropylcarboxamido)benzoyl]-3-E-[2-(pyridin-2-yl)ethenyl]-1H-indazole]
- inhibition at 1 µM (LCK tyrosine kinase): 20%
- IC50 [3, 7]: 48 nM
- % Inhibition [1, 5]: 1%
- inhibition at 1 µM (human FGF-R1): 49%

Compound: Cn1nc(C(C)(C)C)cc1C(=O)Nc1cccc(C(=O)c2ccc3c(/C=C/c4ccccn4)n[nH]c3c2)c1 [Reference Example 41(n), 6-[3-((3-t-butyl-1-methyl-1H-pyrazol-5-yl)carboxamido)benzoyl]-3-E-[2-(pyridin-2-yl)ethenyl]-1H-indazole]
- % remain (HLM, 2 h) (in vitro; [6]): 70%
- inhibition at 1 µM (LCK tyrosine kinase): 66%
- % Inhibition [1, 5]: 2%
- inhibition at 1 µM (human FGF-R1): 87%

Compound: O=C(Nc1cccc(Oc2ccc3c(/C=C/c4c[nH]cn4)n[nH]c3c2)c1)c1ccccc1 [Reference Example 32(a), 6-[3-benzamidophenoxy]-3-E-[2-(1H-imidazol-4-yl)ethenyl]-1H-indazole]
- inhibition at 1 µM (LCK tyrosine kinase): 86%
- IC50 [3, 7]: 4.5 nM
- IC50 ([3]; read-out: HUVEC IC50): 0.16 nM
- AUC (in vivo; ip, 25 mg/kg): > 20600 ng·h/mL
- AUC (in vivo; po, 50 mg/kg): 4190 ng·h/mL
- % Inhibition ([1]; Model P9, intravitreal, 5 mg/ml, vehicle PEG/water 50:50): 20%
- inhibition at 1 µM (human FGF-R1): 96%

Compound: O=C(NCC(F)(F)F)c1ccccc1Sc1ccc2c(/C=C/c3ccccn3)n[nH]c2c1 [Reference Example 33(f), 6-[2-(2,2,2-trifluoroethylcarbamoyl)phenylsulfanyl]-3-E-[2-(pyridin-2-yl)ethenyl]-1H-indazole]
- % remain (HLM, 2 h) (in vitro; [6]): 31%
- IC50 [3, 7]: 17 nM
- % Inhibition [1, 5]: 20%

Compound: Cc1cc(C(=O)Nc2cc(C(=O)c3ccc4c(/C=C/c5ccccn5)n[nH]c4c3)c(C)cc2C)n(C)n1 [Reference Example 41(mm), 6-[2,4-dimethyl-5-((1,3-dimethyl-1H-Pyrazol-5-yl)carboxamido)benzoyl]-3-E-[2-(pyridin-2-yl)ethenyl]-1H-indazole]
- Initial Evaluation [1, 5]: + (one plus being detectable regression judged to be approximately 25 percent or less)

Compound: O=C(c1cccc(NC(=O)c2ccc(Cl)s2)c1)c1ccc2c(/C=C/c3ccccn3)n[nH]c2c1 [41 (o)]
- AUC (in vivo; po, 50 mg/kg): 14700 ng·h/mL
- % Inhibition [1, 5]: 2%
- T1/2 [2, 8]: 1.7 h

Compound: Cc1cc(C(=O)Nc2cccc(C(=O)c3ccc4c(/C=C/c5ccccn5)n[nH]c4c3)c2)n[nH]1 [Reference Example 41(g), 6-[3-((5-methyl-1H-pyrazol-3-yl)carboxamido)benzoyl]-3-E-[2-(pyridin-2-yl)ethenyl]-1H-indazole]
- % remain (HLM, 2 h) (in vitro; [6]): 52%
- inhibition at 1 µM (LCK tyrosine kinase): 36%
- IC50 [3, 7]: > 10 nM
- IC50 ([3]; read-out: HUVEC IC50): 0.9 nM
- % Inhibition [1, 5]: 37%
- inhibition at 1 µM (human FGF-R1): 95%

Compound: O=C(NC1CCC1)c1ccccc1Sc1ccc2c(/C=C/c3ccccn3)n[nH]c2c1 [Reference Example 35(c), 6-[2-(Cyclobutylcarbamoyl)phenylsulfanyl]-3-E-[2-(pyridin-2-yl)ethenyl]-1H-indazole]
- inhibition at 0.05 µM [4]: 76%
- % remain (HLM, 2 h) (in vitro; [6]): 17%
- inhibition at 1 µM (LCK tyrosine kinase): 11%
- IC50 [3, 7]: 6.3 nM
- % Inhibition [1, 5]: 0%
- inhibition at 1 µM (human FGF-R1): 42%

Compound: C#CCNC(=O)c1ccccc1Nc1ccc2c(/C=C/c3ccccn3)n[nH]c2c1 [Example 39(b), 6-[2-(Prop-2-ynylcarbamoyl)phenylamino]-3-E-[2-(pyridin-2-yl)ethenyl]-1H-indazole]
- % remain (HLM, 2 h) (in vitro; human, microsomes, 5 µM): 67%
- % Inhibition [1, 5]: 9%

Compound: Cc1cc(C(=O)Nc2cccc(C(=O)c3ccc4c(/C=C/c5ccccn5)n[nH]c4c3)c2)on1 [Reference Example 41(m), 6-[3-((3-methylisoxazol-5-yl)carboxamido)benzoyl]-3-E-[2-(pyridin-2-yl)ethenyl]-1H-indazole]
- % remain (HLM, 2 h) (in vitro; [6]): 0%
- inhibition at 1 µM (LCK tyrosine kinase): 40%
- IC50 [3, 7]: 23 nM
- % Inhibition [1, 5]: 10%
- inhibition at 1 µM (human FGF-R1): 67%

Compound: Cc1cc(C(=O)Nc2cc(Nc3ccc4c(/C=C/c5ccccn5)n[nH]c4c3)ccc2C)n(C)n1 [Example 49(b), 6-[N-(3-((1,3-Dimethyl-1H-pyrazol-5-yl)carboxamido)-4-methylphenyl)amino]-3-E-[2-(pyridin-2-yl)ethenyl]-1H-indazole]
- inhibition at 0.05 µM [4]: 98%
- inhibition at 1 µM (LCK tyrosine kinase): 9%
- % Inhibition [1, 5]: 5%
- inhibition at 1 µM (human FGF-R1): 80%

Compound: O=C(NCC1CC1)c1ccccc1Sc1ccc2c(/C=C/c3ccccn3)n[nH]c2c1 [Reference Example 35(v), 6-[2-(Cyclopropylmethyl-carbamoyl)phenylsulfanyl]-3-E-[2-(pyridin-2-yl)ethenyl]-1H-indazole]
- inhibition at 0.05 µM [4]: 72%
- % remain (HLM, 2 h) (in vitro; [6]): 26%
- inhibition at 1 µM (LCK tyrosine kinase): 11%
- IC50 [3, 7]: 22 nM
- % Inhibition [1, 5]: 20%
- inhibition at 1 µM (human FGF-R1): 59%

Compound: CC(=O)c1ccc(C(=O)Nc2cccc(C(=O)c3ccc4c(/C=C/c5ccccn5)n[nH]c4c3)c2)s1 [41 (e)]
- AUC (in vivo; ip, 25 mg/kg): 4900 ng·h/mL
- AUC (in vivo; po, 50 mg/kg): 302 ng·h/mL
- % Inhibition [1, 5]: 8%
- T1/2 ([2]; IP, 25 mg/kg, vehicle PEG400:H2O pH 2.3 60:40): 1.6 h
- Cmin (7 hr conc.) [2, 9]: 7 ng/mL
- T1/2 [2, 9]: 1.6 h

Compound: Cc1cc(C(=O)Nc2cccc(Oc3ccc4c(/C=C/c5ccccn5)n[nH]c4c3)c2)nn1C [Reference Example 31(b), 6-[3-((1,5-Dimethyl-1H-pyrazol-3-yl)carboxamido)phenoxy]-3-E-[2-(pyridin-2-yl)ethenyl)-1H-indazole]
- inhibition at 1 µM (LCK tyrosine kinase): 66%
- IC50 [3, 7]: 5.6 nM
- AUC (in vivo; ip, 25 mg/kg): > 7040 ng·h/mL
- AUC (in vivo; po, 50 mg/kg): 2070 ng·h/mL
- % Inhibition [1, 5]: 32%
- inhibition at 1 µM (human FGF-R1): 97%
- T1/2 [2, 10]: 1.7 h
- T1/2 [2, 8]: 1.0 h

Compound: CC1CC1C(=O)Nc1cccc(C(=O)c2ccc3c(/C=C/c4ccccn4)n[nH]c3c2)c1 (stereo not drawn) [41 (h)]
- AUC (in vivo; ip, 25 mg/kg): 26900 ng·h/mL
- AUC (in vivo; po, 50 mg/kg): 4680 ng·h/mL
- % Inhibition ([1]; Model P8, intravitreal, 5 mg/ml, vehicle PEG/water 70:30): 0%
- T1/2 [2, 10]: 1.2 h
- Cmin (7 hr conc.) [2, 8]: 7 ng/mL
- T1/2 [2, 8]: 0.7 h

Compound: Cc1cc(C(=O)Nc2cccc(C(=O)c3ccc4c(/C=C/c5ccccn5)n[nH]c4c3)c2)n(C)n1 [41 (p)]
- AUC (in vivo; ip, 25 mg/kg): 4150 ng·h/mL
- % Inhibition [1, 5]: 35%
- T1/2 [2, 10]: 5.5 h

Compound: CCn1nc(C)cc1C(=O)Nc1cccc(C(=O)c2ccc3c(/C=C/c4ccccn4)n[nH]c3c2)c1 [41 (a)]
- AUC (in vivo; ip, 25 mg/kg): 92800 ng·h/mL
- AUC (in vivo; po, 50 mg/kg): 49000 ng·h/mL
- % Inhibition ([1]; Model P8, intravitreal, 1 mg/ml, vehicle PEG/water 50:50): 4%
- T1/2 [2, 10]: 2.9 h
- T1/2 [2, 8]: 3.4 h

Compound: CCCNC(=O)c1ccccc1Sc1ccc2c(/C=C/c3ccccn3)n[nH]c2c1 [Reference Example 35(a), 6-[2-(n-Propylcarbamoyl)phenylsulfanyl]-3-E-[2-(pyridin-2-yl)ethenyl]-1H-indazole]
- inhibition at 0.05 µM [4]: 76%
- % remain (HLM, 2 h) (in vitro; [6]): 33%
- inhibition at 1 µM (LCK tyrosine kinase): 12%
- IC50 [3, 7]: 2.1 nM
- % Inhibition [1, 5]: 4%
- inhibition at 1 µM (human FGF-R1): 59%

Reference: patent EP1614683B1, “Indazole compounds and pharmaceutical compositions for inhibiting protein kinases, and methods for their use” (priority 1999, dated 2001)
